The results in this text go back to article PMC3632402 (Analytical biochemistry, 2012).

SMILES strings stand for the structures.

Test [1] addresses T1, rat sEH (Rattus norvegicus, UniProt P80299).
T1 sequence (P80299 1-554): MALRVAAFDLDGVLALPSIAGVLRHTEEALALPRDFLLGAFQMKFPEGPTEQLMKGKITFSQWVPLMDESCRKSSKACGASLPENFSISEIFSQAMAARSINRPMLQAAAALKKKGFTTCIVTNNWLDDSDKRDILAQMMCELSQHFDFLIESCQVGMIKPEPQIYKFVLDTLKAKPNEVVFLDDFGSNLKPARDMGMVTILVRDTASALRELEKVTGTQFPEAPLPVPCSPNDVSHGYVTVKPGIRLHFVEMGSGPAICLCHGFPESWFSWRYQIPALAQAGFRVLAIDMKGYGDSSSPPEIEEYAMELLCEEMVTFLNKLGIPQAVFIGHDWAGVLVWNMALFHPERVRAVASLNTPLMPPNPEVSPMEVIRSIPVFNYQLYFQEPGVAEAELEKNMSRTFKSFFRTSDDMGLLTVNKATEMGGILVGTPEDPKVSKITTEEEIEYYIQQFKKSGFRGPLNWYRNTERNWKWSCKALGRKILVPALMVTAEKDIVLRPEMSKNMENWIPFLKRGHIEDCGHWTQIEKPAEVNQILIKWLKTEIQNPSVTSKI
Kind of test: Fluorescence binding assay of reporter ACPU on rat sEH.

The target of test [2] is T2, hsEH (Homo sapiens, UniProt P34913).
T2 sequence (P34913 1-555): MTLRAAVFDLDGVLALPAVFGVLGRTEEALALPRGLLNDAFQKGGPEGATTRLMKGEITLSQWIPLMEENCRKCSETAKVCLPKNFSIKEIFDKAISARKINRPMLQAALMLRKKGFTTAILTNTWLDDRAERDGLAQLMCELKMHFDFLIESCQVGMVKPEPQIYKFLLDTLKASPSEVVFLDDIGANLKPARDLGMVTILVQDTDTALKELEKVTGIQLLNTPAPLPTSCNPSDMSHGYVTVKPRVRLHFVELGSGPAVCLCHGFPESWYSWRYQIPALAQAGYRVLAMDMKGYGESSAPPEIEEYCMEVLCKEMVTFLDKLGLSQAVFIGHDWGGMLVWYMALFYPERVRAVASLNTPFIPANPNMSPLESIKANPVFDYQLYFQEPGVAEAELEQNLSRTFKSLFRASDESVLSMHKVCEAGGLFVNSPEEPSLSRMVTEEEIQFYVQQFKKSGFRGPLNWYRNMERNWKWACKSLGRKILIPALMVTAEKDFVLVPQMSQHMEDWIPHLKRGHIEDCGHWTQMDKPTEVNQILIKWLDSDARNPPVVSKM
Briefly: Fluorescence binding assay.

The target of test [3] is T3, murine sEH (Mus musculus, UniProt P34914).
T3 sequence (P34914 1-554): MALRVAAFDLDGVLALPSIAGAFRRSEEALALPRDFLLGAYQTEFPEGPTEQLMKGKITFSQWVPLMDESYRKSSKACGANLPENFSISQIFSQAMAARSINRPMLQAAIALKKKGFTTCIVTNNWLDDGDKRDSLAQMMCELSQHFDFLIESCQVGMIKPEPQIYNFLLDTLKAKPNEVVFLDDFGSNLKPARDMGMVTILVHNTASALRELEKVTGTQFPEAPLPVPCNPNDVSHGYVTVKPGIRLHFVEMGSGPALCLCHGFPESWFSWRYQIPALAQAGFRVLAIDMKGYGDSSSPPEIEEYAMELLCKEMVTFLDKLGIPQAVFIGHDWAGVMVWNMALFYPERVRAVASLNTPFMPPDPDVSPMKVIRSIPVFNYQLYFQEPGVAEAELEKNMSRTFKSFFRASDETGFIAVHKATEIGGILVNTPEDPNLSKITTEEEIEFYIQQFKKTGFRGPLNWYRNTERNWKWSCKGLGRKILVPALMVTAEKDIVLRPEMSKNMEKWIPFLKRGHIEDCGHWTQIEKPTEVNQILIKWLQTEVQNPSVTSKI
Briefly: Fluorescence binding assay of reporter ACPU on murine sEH.

As usually defined, the Kd is the constant that tells how readily two partners part at equilibrium.

Consider `O=C(NC1CCN(C(=O)Cc2cc(=O)oc3cc(O)ccc23)CC1)NC12CC3CC(CC(C3)C1)C2` [ACPU, 1-(adamantan-1-yl)-3-(1-(2-(7-hydroxy-2-oxo-2H-chromen-4-yl)acetyl)piperidin-4-yl)urea], for which the Kd turned out to be 0.17 nM in test [1], 1.04 ± 0.04 nM in test [2] and 0.1 nM in test [3]. Besides, the “time needed to reach the equilibrium between ACPU and sEH” value in test [2] (FRET signal at 450 nm) came out at 40 min.
